This is an account of results in patent US12329774B2, “Method and composition for enhancing the quality and benefits of sleep” (priority 2020, dated 2025).

Data set [1] has as its system brain serotonin, dopamine and melatonin. The experiment in a line: Brain neurotransmitter levels by ELISA in caffeine-induced wakefulness mice. Format: in vivo. The conditions noted are these: for Dopamine / Melatonin / Serotonin: brain, caffeine followed by saline (C) or test article (20 mg theanine/kg), ELISA, means and standard deviations. (An ELISA detects its analyte on a solid surface through an enzyme-linked reagent.)

Another data set concerns MDA, SOD, CAT, GSHPx. The data set can be described thus: Brain antioxidant status in caffeine-induced wakefulness mice. It counts as in vivo. The following applies: for CAT / GSHPx / MDA / SOD: caffeine followed by saline (C) or test article (20 mg theanine/kg), means and standard deviations. As for the experimental part: Animals were anesthetized with urethane ([…], i.p., Sigma U2500). Body temperature was maintained between 36.5 and 37° C. with homeothermic blanket. Mice were stabilized under a stereotaxic frame (World Precision Instruments, Berlin; Germany) and an incision was made on the skin along the anterior/posterior line of the skull. The left […] was removed gently with a dental drill (Marothon-3; Korea). Two Ag-AgCl sphere electrodes were placed over the left hemisphere with the reference electrode attached on the pinna. […] Brains were rapidly removed, frozen on dry ice and stored at -80° C. until analyses could be performed. Biochemical and Oxidative Stress Markers-Serum melatonin, serotonin, and dopamine were measured using ELISA kits. Brain levels of malondialdehyde (MDA) were measured by HPLC. Brain activities of superoxide dismutase (SOD), catalase (CAT) and glutathione peroxidase (GSHPx) were measured using ELISA kits for each analyte.

For data set [2], the system named is brain waves (spike amplitude / spike frequency). The data set can be described thus: Electrocorticography (ECoG) of brain electrical activity in caffeine-induced wakefulness mice. It counts as in vivo. The following applies: caffeine-induced wake mouse; electrical activity over 120 minutes; result in words; listed as Theanine. The method, then: Animals were anesthetized with urethane ([…], i.p., Sigma U2500). Body temperature was maintained between 36.5 and 37° C. with homeothermic blanket. Mice were stabilized under a stereotaxic frame (World Precision Instruments, Berlin; Germany) and an incision was made on the skin along the anterior/posterior line of the skull. The left […] was removed gently with a dental drill (Marothon-3; Korea). Two Ag—AgCl sphere electrodes were placed over the left hemisphere with the reference electrode attached on the pinna.
Brains were rapidly removed, frozen on dry ice and stored at −80° C. until analyses could be performed.

The test system of another data set is sleep cycle. The conditions noted are these: Jang et al. [11], cited from earlier work.
Data set [3] relates to pentobarbital-induced sleep. The data set can be described thus: Pentobarbital-induced sleep test mouse model. It counts as in vivo, mice. The following applies: for Duration of sleep / Sleep latency period: pentobarbital 42 mg/kg, test article 20 mg theanine/kg per os 45 min before, result in words. The method, then:
Subsequently, pentobarbital was administered intraperitoneally to induce a hypnotic state that promoted sleep. The effects on sleep of the test agents were monitored.
Pentobarbital-induced sleep was performed according to published methods with slight modifications. Mice were fasted for 24 h prior to the experiment. Each test article was dissolved or suspended in physiological saline and then was administered per os. The groups were administered doses of 20 mg/kg theanine, Mg-theanate #1 (20 mg theanine/kg), and Mg-theanate #2 (20 mg theanine/kg), respectively. Forty-five minutes later, a hypnotic dose of pentobarbital (42 mg/kg) was injected into the left side of the abdomen. After injection, the mice were placed in individual cages and subjected to measurements of sleep latency and duration. Sleep latency was defined as the period between pentobarbital injection and the loss of righting reflex (sleep onset), and sleep duration denoted the time elapsed between loss of the righting reflex and recovery.
Statistical Analyses—Data are shown as mean±SEM. Sample size was calculated based on a power of 85% and a p-value of 0.05. Given that assumption, a sample size of seven per treatment was calculated. The data were analyzed using the GLM procedure of SAS (SAS Institute: SAS User's Guide: Statistics). The treatments were compared using ANOVA and Student's unpaired t-test; P<0.05 was considered statistically significant.

The conditions of data set [4]: Nathan [17]; cited from earlier work.
Data set [5] has as its system caffeine-induced wakefulness mice. The experiment in a line: Caffeine-induced wakefulness mouse model: sleep latency, sleep duration, number falling asleep. The conditions noted are these: caffeine-induced wake mouse; caffeine alone or + test article (20 mg theanine/kg). It counts as in vivo. As for the experimental part: Animals and Experimental design: Seven male BALB/c mice per treatment arm (age: 8 weeks, weight: […]) were housed in a controlled environment with a 12:12-h light-dark cycle at 22° C. and were provided with mice chow and water ad libitum. All experiments were conducted under the National Institutes of Health's Guidelines for the Care and Use of Laboratory Animals and approved by the Ethics Committee of the Medipol University.
Drugs and materials: Study product was provided by Nutrition21 LLC (Mg-Theanate #1=lot AA209-122-20, Mg-Theanate #2=lot BLS-DN 13). […] The concentration of each drug solution was adjusted so that the volume injected was constant at 1.0 ml/kg BW. All drug solutions were prepared fresh daily, and were administered intraperitoneally (i.p.). […]

The subject of data set [6] is Bax, Bcl-2, Caspase-3, eNOS, iNOS. The experiment in a line: Western blot of brain cell survival indicators in caffeine-induced wakefulness mice. The following applies: caffeine-induced wake mouse; result in words; listed as Theanine.
Data set [7] deals with stimulatory action of caffeine. The following applies: rats, EEG, Kakuda et al. [13]; cited from earlier work.
The conditions of data set [8]: Ates et al. [2]; comparison in words; cited from earlier work.
For data set [9] the following is noted: 500 mg magnesium daily, 8 weeks, cited from earlier work.
Another data set deals with wakefulness. The following applies: 7.5 mg/kg i.p.; Kwon et al., 2006; cited from earlier work.
Where [10] appears, read: caffeine-induced wake mouse model, 20 mg/kg.
[11] abbreviates: caffeine-induced wake mouse, result in words.

As to `CCNC(=O)CCC(N)C(=O)O` [CMgT2, magnesium di-L-theanate], in data set [1], the Dopamine is reported as 895.57 + 61.93ab ng/g, the Melatonin is 0.85 + 0.04b pg/g and the Serotonin was 751.43 + 30.34b ng/g. In the data set on MDA, SOD, CAT, GSHPx, the CAT is 35.96 + 2.52b IU/mg protein, the GSHPx is on record as 19.11 + 2.39ab IU/mg protein, the MDA is 2.24 + 0.09c nmol/g and the SOD is recorded as 137.29 + 5.99b IU/mg protein.
For `CCNC(=O)CCC(N)C(=O)O` (stereo not shown) [CT, 2-amino-4-(ethylcarbamoyl)-butyric acid, reference compound], in [1], the Dopamine is reported as 779.00 + 77.73c ng/g, the Melatonin is on record as 0.69 + 0.08c pg/g and the Serotonin is on record as 655.43 + 35.46c ng/g. For the same compound, in [2], the “Amplitude of brain waves” value was “+ Theanine: Within about 30 minutes, the amplitude of brain waves increased significantly” and the “Spike frequency of electrical activity in the brain” value was “significantly reduced, as compared to caffeine-treated animals”. In the data set on sleep cycle (setting [10]), the “REM time during the sleep cycle” value is given as “increases”, the Sleep latency entry was “significantly decrease” and the Sleep time entry is “increase”. For the same compound, the “NREM time, chronic administration” value with sleep cycle (chronic administration) is “significant increase”. In the data set on sleep cycle (single doses), the “NREM time, single doses” value is reported as “little effect”. The “Animals that failed to sleep during the 10-minute period following pentobarbital administration” value in data set [3] (20 mg/kg per os) is given as “About 62%”. Further, in [3], the Duration of sleep result is “significantly increased” and the Sleep latency period entry is given as “significantly reduced”. In addition, in [3] (listed as L-theanine), the Duration of sleep result was “significantly increased” and the Sleep latency period entry is reported as “significantly decreased”. Further, in data set [4], the “Time to cross the blood-brain barrier after oral administration” value was not above 30 min. For the same compound, in the data set with MDA, SOD, CAT, GSHPx, the CAT is listed as 29.51 + 2.06c IU/mg protein, the GSHPx was 15.56 + 7.94ab IU/mg protein, the MDA is 2.46 + 0.17b nmol/g and the SOD is on record as 117.14 + 13.89c IU/mg protein. The “Levels of protective enzymes (SOD, CAT, GSHPx)” value with MDA, SOD, CAT, GSHPx (caffeine-induced wake mouse, result in words, listed as Theanine) is “decreased, but the changes were not as great as those shown by caffeine treatment”. Besides, in [5], the “Number of animals falling asleep (share of the group that fell asleep)” value is given as “+ Theanine: 62.5% of the group fell asleep” and the Sleep latency period entry was “+ Theanine: The sleep latency period increased from about 1 to about 1.5 minute, a minutes”. Moreover, the “Brain cell survival (Bax, Bcl-2, Caspase-3, eNOS, and iNOS, indicators of cell damage)” value in data set [6] was “+ Theanine: Administration of theanine caused trends toward normalization of these”. In addition, the “Intravenous dose that could inhibit the stimulatory action of caffeine” value in data set [7] is reported as “higher than 0.78 mg/kg”.
As for `O=C([O-])CC(O)C(=O)[O-].[Mg+2]` (stereo not shown) [magnesium malate], the “Absorption (and bioavailability) of magnesium” value (“Absorption” below) in data set [8] is reported as “more poorly absorbed than certain magnesium complexes with amino acids”.
For magnesium citrate, in data set [8], the “Absorption” value was “more poorly absorbed than certain magnesium complexes with amino acids”.
On to `CCNC(=O)CCC(N)C(=O)O` [CMgT1, magnesium di-L-theanate], for which, in [1], the Dopamine was 832.71 + 74.50bc ng/g, the Melatonin is 0.80 + 0.03b pg/g and the Serotonin is recorded as 762.29 + 25.34b ng/g. In addition, in the data set on MDA, SOD, CAT, GSHPx, the CAT is 36.47 + 1.27b IU/mg protein, the MDA is on record as 2.24 + 0.14c nmol/g and the SOD was 131.14 + 9.86b IU/mg protein.
For magnesium acetyl taurate, the “Absorption” value in data set [8] was “significantly better absorption and bioavailability than magnesium glycinate”.
`[Mg+2]` [magnesium]: the “Concentration of serum renin vs placebo” value in data set [9] (P<0.001) is recorded as “statistically significant increases”. For the same compound, the “Sleep time vs placebo” value in data set [9] (P=0.002) is recorded as “statistically significant increases”. Also, the “Concentration of melatonin vs placebo” value in [9] (P=0.007) was “statistically significant increases”. In addition, the “Sleep efficiency vs placebo” value in data set [9] (P=0.03) is reported as “statistically significant increases”. Moreover, in data set [9], the “Early morning wakening time” value is reported as “shortened”. Further, in data set [9] (subjective measure), the “Insomnia Severity Index scores” value is “improved”.
As to `Cn1c(=O)c2c(ncn2C)n(C)c1=O` [C, Caffeine, reference compound], the “Time for which wakefulness is maintained” value in the data set on wakefulness is reported as “at least 2 h”. Besides, in data set [1], the Dopamine was 584.86 + 72.47d ng/g, the Melatonin is on record as 0.59 + 0.05a pg/g and the Serotonin was 571.00 + 42.14d ng/g. The “Neurotransmitter levels (brain serotonin, dopamine, and melatonin)” value in data set [1] (setting [11]) is given as “Caffeine: Levels of all three neurotransmitters were significantly reduced, reflecting the”. In the data set with MDA, SOD, CAT, GSHPx, the CAT is 24.40 + 1.62a IU/mg protein, the GSHPx was 12.07 + 2.89b IU/mg protein and the SOD was 89.00 + 5.16a IU/mg protein. The “Level of MDA (indicator of oxidative stress)” value in the data set on MDA, SOD, CAT, GSHPx (setting [11]) was “Caffeine: The level of MDA (an indicator of oxidative stress) was significantly increased,”. In data set [5], the “Number of animals falling asleep (share of the group that fell asleep)” value is recorded as “Caffeine: only 50% of the group fell asleep” and the Sleep latency period result was “Caffeine: The sleep latency period doubled to about 2 minutes in caffeine-treated animals”.
